Laboratory results as given in ChEMBL document CHEMBL4024745, “Causes and Significance of Increased Compound Potency in Cellular or Physiological Contexts” (J Med Chem, 2018).
One block for each compound: values may come before it.

How the values were obtained:
[1] = Binding affinity to Escherichia coli MRE600 50S ribosome after 80 hrs by equilibrium dialysis method
[2] = Inhibition of coupled transcription-translation in Escherichia coli UC6782 […] using ortho-nitrophenyl-beta-galactoside as substrate after 30 mins by spectrophotometry
[3] = Binding affinity to Escherichia coli MRE600 50S ribosome after 10 mins by radioligand binding assay
[4] = molecular target: Bacterial 70S ribosome; assay: Binding affinity to Escherichia coli A19 70S ribosome after 30 mins by scintillation counting method
[5] = Binding affinity to Escherichia coli A19 50S ribosome after 30 mins by scintillation counting method
[6] = Drug metabolism in human MDA231 cells assessed as polyglutamylation of compound at 2 uM after 24 hrs by liquid scintillation counting method; assay type: ADME, cell-based; conditions: MDA231 (MDA-MB-231) cells, read-out: Drug metabolism
[7] = Drug metabolism in human ZR-75B cells assessed as polyglutamylation of compound at 2 uM after 24 hrs by liquid scintillation counting method; assay type: ADME, cell-based; conditions: read-out: Drug metabolism
[8] = Drug metabolism in human MCF7 cells assessed as polyglutamylation of compound at 2 uM after 24 hrs by liquid scintillation counting method; assay type: ADME, cell-based; conditions: read-out: Drug metabolism

Compound: CCC[C@@H]1C[C@@H](C(=O)N[C@@H]([C@H]2O[C@H](SC)[C@H](O)[C@@H](O)[C@H]2O)[C@@H](C)O)N([14CH3])C1
Kd [1]: 34000 nM

IC50 [2]: 1800 nM
IC50 [3]: 20000 nM
Compound: CC(=O)NC[C@H]1CN(c2ccc(N3CCN(C(=O)CO)CC3)c(F)c2)C(=O)O1 [EPEREZOLID]

Compound: COC[C@H]1O[C@@H](O[C@@H]2OC[C@@H]3O[C@@]4(OC[C@@H](OC(=O)c5c(C)cc(O)cc5O)[C@@H]5OCO[C@H]54)O[C@H]3[C@H]2O)[C@@H](OC)[C@@H](O)[C@@H]1O[C@@H]1O[C@H](C)[C@H](OC)[C@H](O[C@@H]2O[C@H](C)[C@H]3O[C@]4(C[C@@H](O)[C@H](O[C@H]5C[C@@H](O[C@H]6C[C@](C)([N+](=O)[O-])[C@@H](OC)[C@H](C)O6)[C@H](OC(=O)c6c(C)c(Cl)c(O)c(Cl)c6OC)[C@@H](C)O5)[C@@H](C)O4)O[C@]3(C)[C@@H]2O)[C@H]1O [EVERNIMICIN]
Kd [4]: 84 nM
Kd [5]: 160 nM

metabolised at 24 h, 2 µM [6]: 32%
metabolised at 24 h, 2 µM [7]: 87.6%
metabolised at 24 h, 2 µM [8]: 55.4%
Compound: CN(Cc1cnc2nc(N)nc(N)c2n1)c1ccc(C(=O)N[C@@H](CCC(=O)O)C(=O)O)cc1 [METHOTREXATE]
